Experimental data taken from patent US7709482B2, “Polycyclic heteroaryl substituted triazoles useful as Axl inhibitors” (Rigel Pharmaceuticals, Inc., priority 2006, dated 2010).

Each molecule was assayed against T1, Axl (Homo sapiens, UniProt P30530) (assay: Phospho-Akt In-Cell Western Assay (inhibition of Axl activity after Axl-antibody cross-linking)). Conditions: inhibition of Axl activity; Table 1, compounds of formula (Ia); read-out: IC50.
T1 construct: endogenous in cells; host or cells: HeLa cells
T1 sequence (P30530 26-894): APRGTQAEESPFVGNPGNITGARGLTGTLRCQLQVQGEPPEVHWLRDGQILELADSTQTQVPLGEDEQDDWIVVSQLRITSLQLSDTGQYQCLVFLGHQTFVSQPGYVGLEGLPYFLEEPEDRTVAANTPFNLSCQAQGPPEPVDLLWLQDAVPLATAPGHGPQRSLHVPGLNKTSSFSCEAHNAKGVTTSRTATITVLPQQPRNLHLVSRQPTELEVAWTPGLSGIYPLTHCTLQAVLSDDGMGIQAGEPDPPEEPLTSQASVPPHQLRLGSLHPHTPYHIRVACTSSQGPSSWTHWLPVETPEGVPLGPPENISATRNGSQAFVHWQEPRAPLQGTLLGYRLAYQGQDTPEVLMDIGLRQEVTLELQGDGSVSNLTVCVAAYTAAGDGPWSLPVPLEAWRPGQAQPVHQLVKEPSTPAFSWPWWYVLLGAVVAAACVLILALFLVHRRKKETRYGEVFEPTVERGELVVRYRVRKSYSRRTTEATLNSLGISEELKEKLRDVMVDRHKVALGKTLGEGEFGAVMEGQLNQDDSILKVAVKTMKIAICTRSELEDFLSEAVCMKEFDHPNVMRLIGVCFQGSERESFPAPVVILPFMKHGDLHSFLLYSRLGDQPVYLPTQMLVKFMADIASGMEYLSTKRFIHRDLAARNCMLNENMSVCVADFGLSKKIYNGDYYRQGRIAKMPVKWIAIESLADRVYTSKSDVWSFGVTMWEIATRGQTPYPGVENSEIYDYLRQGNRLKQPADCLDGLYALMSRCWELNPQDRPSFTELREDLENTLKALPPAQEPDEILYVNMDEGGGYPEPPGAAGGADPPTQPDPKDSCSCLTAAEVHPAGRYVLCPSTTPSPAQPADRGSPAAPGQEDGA
Assay type: cell-based
How it was run: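 Phospho-Akt was detected in formaldehyde-fixed cells by in-cell immunostaining with HRP chemiluminescence. Before fixation, HeLa cells kept 24 h in low-serum medium containing 500 ng/mL Axl/Fc received compound for 1 h at 37 °C, followed by 5-min Axl activation through antibody clustering.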

Compared with CCN(CC)CCC1CCCc2ccc(Nc3nc(N)n(-c4cc5c(nn4)-c4ccccc4CCC5)n3)cc2C1O (stereo not shown) [Compound 208, 1-(6,7-dihydro-5H-benzo[6,7]cyclohepta[1,2-c]pyridazin-3-yl)-N^3-(8-diethylaminoethyl-9-hydroxy-6,7,8,9-tetrahydro-5H-benzo[7]annulene-2-yl)-1H-1,2,4-triazole-3,5-diamine], Nc1nc(Nc2ccc3c(c2)CCC(O)CC3)nn1-c1cc2c(nn1)-c1ccccc1CCC2 (stereo not shown) [Compound 226, 1-(6,7-dihydro-5H-benzo[6,7]cyclohepta[1,2-c]pyridazin-3-yl)-N^3-(7-hydroxy-6,7,8,9-tetrahydro-5H-benzo[7]annulene-2-yl)-1H-1,2,4-triazole-3,5-diamine] is lower in IC50: 1000 to 10000 nM for the first, less than 1000 nM for the second.

CN1CCN(c2ccc(Nc3nc(N)n(-c4cc5c(nn4)-c4ccccc4CCC5)n3)cc2F)CC1 [Compound 209, 1-(6,7-dihydro-5H-benzo[6,7]cyclohepta[1,2-c]pyridazin-3-yl)-N^3-(3-fluoro-4-(4-methylpiperazin-1-yl)phenyl)-1H-1,2,4-triazole-3,5-diamine] and Nc1nc(Nc2ccc(N3CCN(CC4CC4)CC3)c(F)c2)nn1-c1cc2c(nn1)-c1ccccc1CCC2 [Compound 214, 1-(6,7-dihydro-5H-benzo[6,7]cyclohepta[1,2-c]pyridazin-3-yl)-N^3-(3-fluoro-4-(4-cyclopropylmethylpiperazin-1-yl)phenyl)-1H-1,2,4-triazole-3,5-diamine] cannot be ordered by IC50: less than 1000 nM for the first, less than 1000 nM for the second.

CN1CCCC(Oc2ccc(Nc3nc(N)n(-c4cc5c(nn4)-c4ccccc4CCC5)n3)cc2)C1 (stereo not shown) [Compound 210, 1-(6,7-dihydro-5H-benzo[6,7]cyclohepta[1,2-c]pyridazin-3-yl)-N^3-(4-(1-methylpiperidin-3-yl-oxy)phenyl)-1H-1,2,4-triazole-3,5-diamine] and Nc1nc(Nc2ccc(C3CCN(CC4CC4)CC3)cc2)nn1-c1cc2c(nn1)-c1ccccc1CCC2 [Compound 212, 1-(6,7-dihydro-5H-benzo[6,7]cyclohepta[1,2-c]pyridazin-3-yl)-N^3-(4-(1-cyclopropylmethylpiperidin-4-yl)phenyl)-1H-1,2,4-triazole-3,5-diamine] cannot be ordered by IC50: less than 1000 nM for the first, less than 1000 nM for the second.

Going from Nc1nc(Nc2ccc(C3CCN(C4CC5CCC4C5)CC3)cc2)nn1-c1cc2c(nn1)-c1ccccc1CCC2 (stereo not shown) [Compound 211, 1-(6,7-dihydro-5H-benzo[6,7]cyclohepta[1,2-c]pyridazin-3-yl)-N^3-(4-(1-bicyclo[2.2.1]heptan-2-yl)-piperidin-4-ylphenyl)-1H-1,2,4-triazole-3,5-diamine] to Nc1nc(Nc2ccc3c(c2)CCC(N2CC[C@H](F)C2)CC3)nn1-c1cc2c(nn1)-c1ccccc1CCC2 (stereo partly drawn) [Compound 217, 1-(6,7-dihydro-5H-benzo[6,7]cyclohepta[1,2-c]pyridazin-3-yl)-N^3-(7-(3-(S)-fluoropyrrolidin-1-yl)-6,7,8,9-tetrahydro-5H-benzo[7]annulene-2-yl)-1H-1,2,4-triazole-3,5-diamine], the IC50 falls from greater than 20000 nM to less than 1000 nM.

Nc1nc(Nc2ccc3c(c2)CNCC3)nn1-c1cc2c(nn1)-c1ccccc1CCC2 [Compound 213, 1-(6,7-dihydro-5H-benzo[6,7]cyclohepta[1,2-c]pyridazin-3-yl)-N^3-(1,2,3,4-tetrahydroisoquinolin-7-yl)-1H-1,2,4-triazole-3,5-diamine] and Nc1nc(Nc2ccc3c(c2)CCC(=O)CC3)nn1-c1cc2c(nn1)-c1ccccc1CCC2 [Compound 223, 1-(6,7-dihydro-5H-benzo[6,7]cyclohepta[1,2-c]pyridazin-3-yl)-N^3-(7-oxo-6,7,8,9-tetrahydro-5H-benzo[7]annulene-2-yl)-1H-1,2,4-triazole-3,5-diamine] cannot be ordered by IC50: less than 1000 nM for the first, less than 1000 nM for the second.

CN1CCC(N2CCc3ccc(Nc4nc(N)n(-c5cc6c(nn5)-c5ccccc5CCC6)n4)cc3C2)CC1 [Compound 215, 1-(6,7-dihydro-5H-benzo[6,7]cyclohepta[1,2-c]pyridazin-3-yl)-N^3-(2-(1-methylpiperidin-4-yl)-1,2,3,4-tetrahydroisoquinolin-7-yl)-1H-1,2,4-triazole-3,5-diamine] and CN1CCN(C2CCc3ccc(Nc4nc(N)n(-c5cc6c(nn5)-c5ccccc5CCC6)n4)cc3CC2)CC1 (stereo not shown) [Compound 227, 1-(6,7-dihydro-5H-benzo[6,7]cyclohepta[1,2-c]pyridazin-3-yl)-N^3-(7-(4-methylpiperazin-1-yl)-6,7,8,9-tetrahydro-5H-benzo[7]annulene-2-yl)-1H-1,2,4-triazole-3,5-diamine] cannot be ordered by IC50: less than 1000 nM for the first, less than 1000 nM for the second.

Nc1nc(Nc2ccc3c(c2)CN(CC2CC2)CC3)nn1-c1cc2c(nn1)-c1ccccc1CCC2 [Compound 216, 1-(6,7-dihydro-5H-benzo[6,7]cyclohepta[1,2-c]pyridazin-3-yl)-N^3-(2-(cyclopropylmethyl)-1,2,3,4-tetrahydroisoquinolin-7-yl)-1H-1,2,4-triazole-3,5-diamine] and C[C@H]1CCCN1C1CCc2ccc(Nc3nc(N)n(-c4cc5c(nn4)-c4ccccc4CCC5)n3)cc2CC1 (stereo partly drawn) [Compound 218, 1-(6,7-dihydro-5H-benzo[6,7]cyclohepta[1,2-c]pyridazin-3-yl)-N^3-(7-(2-(S)-methylpyrrolidin-1-yl)-6,7,8,9-tetrahydro-5H-benzo[7]annulene-2-yl)-1H-1,2,4-triazole-3,5-diamine] cannot be ordered by IC50: less than 1000 nM for the first, less than 1000 nM for the second.

Nc1nc(Nc2ccc3c(c2)CCC(N2CC[C@@H](O)C2)CC3)nn1-c1cc2c(nn1)-c1ccccc1CCC2 (stereo partly drawn) [Compound 219, 1-(6,7-dihydro-5H-benzo[6,7]cyclohepta[1,2-c]pyridazin-3-yl)-N^3-(7-(3-(R)-hydroxypyrrolidin-1-yl)-6,7,8,9-tetrahydro-5H-benzo[7]annulene-2-yl)-1H-1,2,4-triazole-3,5-diamine] and Nc1nc(Nc2ccc3c(c2)CCC(N2CC[C@H](O)C2)CC3)nn1-c1cc2c(nn1)-c1ccccc1CCC2 (stereo partly drawn) [Compound 221, 1-(6,7-dihydro-5H-benzo[6,7]cyclohepta[1,2-c]pyridazin-3-yl)-N^3-(7-(3-(S)-hydroxypyrrolidin-1-yl)-6,7,8,9-tetrahydro-5H-benzo[7]annulene-2-yl)-1H-1,2,4-triazole-3,5-diamine] cannot be ordered by IC50: less than 1000 nM for the first, less than 1000 nM for the second.

C[C@@H]1CCCN1C1CCc2ccc(Nc3nc(N)n(-c4cc5c(nn4)-c4ccccc4CCC5)n3)cc2CC1 (stereo partly drawn) [Compound 220, 1-(6,7-dihydro-5H-benzo[6,7]cyclohepta[1,2-c]pyridazin-3-yl)-N^3-(7-(2-(R)-methylpyrrolidin-1-yl)-6,7,8,9-tetrahydro-5H-benzo[7]annulene-2-yl)-1H-1,2,4-triazole-3,5-diamine] and Nc1nc(Nc2ccc3c(c2)CCC(N2CC[C@@H](F)C2)CC3)nn1-c1cc2c(nn1)-c1ccccc1CCC2 (stereo partly drawn) [Compound 222, 1-(6,7-dihydro-5H-benzo[6,7]cyclohepta[1,2-c]pyridazin-3-yl)-N^3-(7-(3-(R)-fluoropyrrolidin-1-yl)-6,7,8,9-tetrahydro-5H-benzo[7]annulene-2-yl)-1H-1,2,4-triazole-3,5-diamine] cannot be ordered by IC50: less than 1000 nM for the first, less than 1000 nM for the second.

Nc1nc(Nc2ccc3c(c2)CCC(NC2CCCCC2)CC3)nn1-c1cc2c(nn1)-c1ccccc1CCC2 (stereo not shown) [Compound 224, 1-(6,7-dihydro-5H-benzo[6,7]cyclohepta[1,2-c]pyridazin-3-yl)-N^3-(7-cyclohexylamino-6,7,8,9-tetrahydro-5H-benzo[7]annulene-2-yl)-1H-1,2,4-triazole-3,5-diamine] and Nc1nc(Nc2ccc3c(c2)CCC(NC2CCC2)CC3)nn1-c1cc2c(nn1)-c1ccccc1CCC2 (stereo not shown) [Compound 229, 1-(6,7-dihydro-5H-benzo[6,7]cyclohepta[1,2-c]pyridazin-3-yl)-N^3-(7-cyclobutylamino-6,7,8,9-tetrahydro-5H-benzo[7]annulene-2-yl)-1H-1,2,4-triazole-3,5-diamine] cannot be ordered by IC50: less than 1000 nM for the first, less than 1000 nM for the second.

Nc1nc(Nc2ccc3c(c2)CCC(NC2CC2)CC3)nn1-c1cc2c(nn1)-c1ccccc1CCC2 (stereo not shown) [Compound 225, 1-(6,7-dihydro-5H-benzo[6,7]cyclohepta[1,2-c]pyridazin-3-yl)-N^3-(7-cyclopropylamino-6,7,8,9-tetrahydro-5H-benzo[7]annulene-2-yl)-1H-1,2,4-triazole-3,5-diamine] and Nc1nc(Nc2ccc3c(c2)CCC(NCC2CCCO2)CC3)nn1-c1cc2c(nn1)-c1ccccc1CCC2 (stereo not shown) [Compound 228, 1-(6,7-dihydro-5H-benzo[6,7]cyclohepta[1,2-c]pyridazin-3-yl)-N^3-(7-(tetrahydrofuran-2-ylmethyl)amino-6,7,8,9-tetrahydro-5H-benzo[7]annulene-2-yl)-1H-1,2,4-triazole-3,5-diamine] cannot be ordered by IC50: less than 1000 nM for the first, less than 1000 nM for the second.
